Data: the NIST ThermoML archive (doi:10.1021/je900596d)
± gives the expanded uncertainty stated by the source.

Settings: Vibrating tube method

FC(F)=C(F)C(F)(F)F [hexafluoropropene]
Settings | mass density [kg/m3]
263.41 K, 162.7 kPa, Fluid (supercritical or subcritical phases) | 11.79 ± 0.04
263.41 K, 164.3 kPa, Fluid (supercritical or subcritical phases) | 11.92 ± 0.04
263.41 K, 165.5 kPa, Fluid (supercritical or subcritical phases) | 12.02 ± 0.04
263.41 K, 167 kPa, Fluid (supercritical or subcritical phases) | 12.14 ± 0.04
263.41 K, 168.6 kPa, Fluid (supercritical or subcritical phases) | 12.22 ± 0.04
263.41 K, 170.1 kPa, Fluid (supercritical or subcritical phases) | 12.35 ± 0.04
263.41 K, 171.8 kPa, Fluid (supercritical or subcritical phases) | 12.46 ± 0.04
263.41 K, 173.2 kPa, Fluid (supercritical or subcritical phases) | 12.64 ± 0.04
263.41 K, 174.8 kPa, Fluid (supercritical or subcritical phases) | 12.73 ± 0.04
263.41 K, 176.4 kPa, Fluid (supercritical or subcritical phases) | 12.82 ± 0.04
263.41 K, 177.9 kPa, Fluid (supercritical or subcritical phases) | 13 ± 0.04
263.41 K, 179.4 kPa, Fluid (supercritical or subcritical phases) | 13.09 ± 0.04
263.41 K, 180.9 kPa, Fluid (supercritical or subcritical phases) | 13.22 ± 0.04
263.41 K, 182.4 kPa, Fluid (supercritical or subcritical phases) | 13.34 ± 0.04
263.41 K, 183.9 kPa, Fluid (supercritical or subcritical phases) | 13.46 ± 0.04
263.41 K, 185.4 kPa, Fluid (supercritical or subcritical phases) | 13.58 ± 0.04
263.41 K, 186.9 kPa, Fluid (supercritical or subcritical phases) | 13.66 ± 0.04
263.41 K, 188.4 kPa, Fluid (supercritical or subcritical phases) | 13.77 ± 0.04
263.41 K, 189.9 kPa, Fluid (supercritical or subcritical phases) | 13.87 ± 0.04
263.41 K, 191.3 kPa, Fluid (supercritical or subcritical phases) | 14.01 ± 0.04
263.41 K, 192.8 kPa, Fluid (supercritical or subcritical phases) | 14.11 ± 0.04
263.41 K, 194.2 kPa, Fluid (supercritical or subcritical phases) | 14.27 ± 0.04
263.41 K, 195.7 kPa, Fluid (supercritical or subcritical phases) | 14.37 ± 0.04
263.41 K, 197.1 kPa, Fluid (supercritical or subcritical phases) | 14.48 ± 0.04
263.41 K, 198.5 kPa, Fluid (supercritical or subcritical phases) | 14.63 ± 0.04
263.41 K, 199.9 kPa, Fluid (supercritical or subcritical phases) | 14.76 ± 0.04
263.41 K, 201.3 kPa, Fluid (supercritical or subcritical phases) | 14.81 ± 0.04
263.41 K, 202.7 kPa, Fluid (supercritical or subcritical phases) | 14.96 ± 0.04
263.41 K, 204.1 kPa, Fluid (supercritical or subcritical phases) | 15.01 ± 0.04
263.41 K, 205.5 kPa, Fluid (supercritical or subcritical phases) | 15.14 ± 0.04
263.41 K, 206.9 kPa, Fluid (supercritical or subcritical phases) | 15.26 ± 0.04
263.41 K, 208.3 kPa, Fluid (supercritical or subcritical phases) | 15.38 ± 0.04
263.41 K, 209.6 kPa, Fluid (supercritical or subcritical phases) | 15.49 ± 0.04
263.41 K, 211 kPa, Fluid (supercritical or subcritical phases) | 15.6 ± 0.04
263.41 K, 212.3 kPa, Fluid (supercritical or subcritical phases) | 15.71 ± 0.04
263.41 K, 213.6 kPa, Fluid (supercritical or subcritical phases) | 15.8 ± 0.04
263.41 K, 214.9 kPa, Fluid (supercritical or subcritical phases) | 15.93 ± 0.04
263.41 K, 216.3 kPa, Fluid (supercritical or subcritical phases) | 16.03 ± 0.04
263.41 K, 217.6 kPa, Fluid (supercritical or subcritical phases) | 16.16 ± 0.04
263.41 K, 218.8 kPa, Fluid (supercritical or subcritical phases) | 16.24 ± 0.04
263.41 K, 220.2 kPa, Fluid (supercritical or subcritical phases) | 16.31 ± 0.04
263.41 K, 220.6 kPa, Fluid (supercritical or subcritical phases) | 16.37 ± 0.04
263.41 K, 221.1 kPa, Fluid (supercritical or subcritical phases) | 16.43 ± 0.04
263.41 K, 221.5 kPa, Fluid (supercritical or subcritical phases) | 16.47 ± 0.04
263.41 K, 222 kPa, Fluid (supercritical or subcritical phases) | 16.48 ± 0.04
263.41 K, 222.4 kPa, Fluid (supercritical or subcritical phases) | 16.53 ± 0.04
263.41 K, 223.2 kPa, Fluid (supercritical or subcritical phases) | 16.59 ± 0.04
263.41 K, 223.6 kPa, Fluid (supercritical or subcritical phases) | 16.63 ± 0.04
263.41 K, 224 kPa, Fluid (supercritical or subcritical phases) | 16.66 ± 0.04
263.41 K, 224.4 kPa, Fluid (supercritical or subcritical phases) | 16.7 ± 0.04
263.41 K, 225.4 kPa, Fluid (supercritical or subcritical phases) | 16.76 ± 0.04
263.41 K, 226.2 kPa, Fluid (supercritical or subcritical phases) | 16.85 ± 0.04
263.41 K, 226.6 kPa, Fluid (supercritical or subcritical phases) | 16.88 ± 0.04
263.41 K, 227 kPa, Fluid (supercritical or subcritical phases) | 16.94 ± 0.04
263.41 K, 227.9 kPa, Fluid (supercritical or subcritical phases) | 16.98 ± 0.04
263.41 K, 228.6 kPa, Fluid (supercritical or subcritical phases) | 17.03 ± 0.04
263.41 K, 229 kPa, Fluid (supercritical or subcritical phases) | 17.07 ± 0.04
263.41 K, 229.9 kPa, Fluid (supercritical or subcritical phases) | 17.2 ± 0.04
263.41 K, 230.7 kPa, Fluid (supercritical or subcritical phases) | 17.24 ± 0.04
263.41 K, 231.4 kPa, Fluid (supercritical or subcritical phases) | 17.29 ± 0.04
263.41 K, 231.9 kPa, Fluid (supercritical or subcritical phases) | 17.35 ± 0.04
263.41 K, 232.6 kPa, Fluid (supercritical or subcritical phases) | 17.43 ± 0.04
263.41 K, 233 kPa, Fluid (supercritical or subcritical phases) | 17.48 ± 0.04
263.41 K, 233.4 kPa, Fluid (supercritical or subcritical phases) | 17.55 ± 0.04
263.41 K, 234.2 kPa, Fluid (supercritical or subcritical phases) | 17.65 ± 0.04
263.41 K, 234.9 kPa, Fluid (supercritical or subcritical phases) | 17.92 ± 0.04
263.41 K, 235.5 kPa, Fluid (supercritical or subcritical phases) | 18.45 ± 0.04
263.41 K, 236 kPa, Fluid (supercritical or subcritical phases) | 19 ± 0.05
263.49 K, 230.2 kPa, Liquid | 1462.58 ± 1.5
263.49 K, 230.4 kPa, Liquid | 1462.56 ± 1.5
263.49 K, 231 kPa, Liquid | 1462.62 ± 1.5
263.49 K, 231.9 kPa, Liquid | 1462.66 ± 1.5
263.49 K, 232.1 kPa, Liquid | 1462.66 ± 1.5
263.49 K, 235.3 kPa, Liquid | 1462.67 ± 1.5
263.49 K, 242.7 kPa, Liquid | 1462.66 ± 1.5
263.49 K, 244.5 kPa, Liquid | 1462.72 ± 1.5
263.49 K, 250.6 kPa, Liquid | 1462.76 ± 1.5
263.49 K, 257.4 kPa, Liquid | 1462.73 ± 1.5
263.49 K, 258.3 kPa, Liquid | 1462.79 ± 1.5
263.49 K, 263.2 kPa, Liquid | 1462.89 ± 1.5
263.49 K, 273.9 kPa, Liquid | 1462.91 ± 1.5
263.49 K, 279.5 kPa, Liquid | 1462.96 ± 1.5
263.49 K, 288.7 kPa, Liquid | 1462.98 ± 1.5
263.49 K, 322.8 kPa, Liquid | 1463.12 ± 1.5
263.49 K, 327.2 kPa, Liquid | 1463.13 ± 1.5
263.49 K, 333.9 kPa, Liquid | 1463.18 ± 1.5
263.49 K, 337.8 kPa, Liquid | 1463.15 ± 1.5
263.49 K, 341.2 kPa, Liquid | 1463.16 ± 1.5
263.49 K, 345.9 kPa, Liquid | 1463.25 ± 1.5
263.49 K, 354.4 kPa, Liquid | 1463.25 ± 1.5
263.49 K, 361.4 kPa, Liquid | 1463.34 ± 1.5
263.49 K, 370.3 kPa, Liquid | 1463.38 ± 1.5
263.49 K, 388 kPa, Liquid | 1463.45 ± 1.5
263.49 K, 390.4 kPa, Liquid | 1463.48 ± 1.5
263.49 K, 401.9 kPa, Liquid | 1463.54 ± 1.5
263.49 K, 413.3 kPa, Liquid | 1463.57 ± 1.5
263.49 K, 431.1 kPa, Liquid | 1463.65 ± 1.5
263.49 K, 433.8 kPa, Liquid | 1463.67 ± 1.5
263.49 K, 447.7 kPa, Liquid | 1463.79 ± 1.5
263.49 K, 467.1 kPa, Liquid | 1463.9 ± 1.5
263.49 K, 484.1 kPa, Liquid | 1463.94 ± 1.5
263.49 K, 491.3 kPa, Liquid | 1463.96 ± 1.5
263.49 K, 502.2 kPa, Liquid | 1464.1 ± 1.5
263.49 K, 506.6 kPa, Liquid | 1464.15 ± 1.5
263.49 K, 518.2 kPa, Liquid | 1464.18 ± 1.5
263.49 K, 527.6 kPa, Liquid | 1464.19 ± 1.5
263.49 K, 529.9 kPa, Liquid | 1464.3 ± 1.5
263.49 K, 550.9 kPa, Liquid | 1464.3 ± 1.5
263.49 K, 554.1 kPa, Liquid | 1464.39 ± 1.5
263.49 K, 574.4 kPa, Liquid | 1464.38 ± 1.5
263.49 K, 584.9 kPa, Liquid | 1464.43 ± 1.5
263.49 K, 596.2 kPa, Liquid | 1464.57 ± 1.5
263.49 K, 625.2 kPa, Liquid | 1464.59 ± 1.5
263.49 K, 652.6 kPa, Liquid | 1464.81 ± 1.5
263.49 K, 673 kPa, Liquid | 1464.96 ± 1.5
263.49 K, 705.5 kPa, Liquid | 1465.02 ± 1.5
263.49 K, 728.3 kPa, Liquid | 1465.2 ± 1.5
263.49 K, 751.2 kPa, Liquid | 1465.25 ± 1.5
263.49 K, 772.1 kPa, Liquid | 1465.47 ± 1.5
263.49 K, 792.6 kPa, Liquid | 1465.54 ± 1.5
263.49 K, 813.9 kPa, Liquid | 1465.54 ± 1.5
263.49 K, 853.1 kPa, Liquid | 1465.89 ± 1.5
263.49 K, 888.3 kPa, Liquid | 1465.94 ± 1.5
263.49 K, 912.8 kPa, Liquid | 1466.07 ± 1.5
263.49 K, 939.3 kPa, Liquid | 1466.24 ± 1.5
263.49 K, 962.1 kPa, Liquid | 1466.39 ± 1.5
263.49 K, 982.9 kPa, Liquid | 1466.54 ± 1.5
263.49 K, 1031 kPa, Liquid | 1466.76 ± 1.5
263.49 K, 1064.1 kPa, Liquid | 1466.9 ± 1.5
263.49 K, 1098.2 kPa, Liquid | 1467.05 ± 1.5
263.49 K, 1132.8 kPa, Liquid | 1467.28 ± 1.5
263.49 K, 1165.8 kPa, Liquid | 1467.41 ± 1.5
263.49 K, 1201.1 kPa, Liquid | 1467.57 ± 1.5
263.49 K, 1250.1 kPa, Liquid | 1467.92 ± 1.5
